{"source": "patent US20240082342A1", "about": "“PEPTIDE THERAPEUTICS FOR INCREASING LUNG CELL VIABILITY” (BOARD OF REGENTS, THE UNIVERSITY OF TEXAS SYSTEM, priority 2018, published 2024)", "key": {"WT mice exposed to PTS": {"tested_on": "WT mice exposed to PTS", "assay": "Passive tobacco smoke (PTS) exposed WT mice treated IP with CSP or CSP7 once a week", "type": "in vivo, mouse", "settings": "for p53, PAI-1 expression and apoptosis in A2Cs/A2ECs: PTS (or IL-17A) exposure; for pulmonary influx of CD4- and CD8-positive T cells, macrophages and neutrophils: PTS exposed mice", "description": "Four weeks after initiation of PTS exposure, the WT mice were administered an intraperitoneal injection of vehicle or CSP (18.75 mg/kg body wt) or control peptide (CP) once a week for the next 4 weeks. Exposure to PTS was continued for another 12 weeks. BAL fluid and lysates (CL) from A2ECs isolated from PTS exposed WT mice treated with vehicle, CSP or CP were immunoblotted for p53 and PAI-1 and activation of caspase-3. -β-actin was tested for similar loading. […] The process involves inhibition of p53-induced PAI-1 expression.\nFIGS. 57A-57C show inhibition of PTS-induced IL-17A by CSP in WT mice. Four weeks after initiation of PTS exposure as in FIG. 56, the WT mice were administered an intraperitoneal (IP) injection of vehicle or CSP (18.75 mg/kg body wt) or control peptide (CP) once a week for the next 4 weeks. Exposure to PTS was continued for another 12 weeks. Lung sections (A), lung homogenates (B) and total RNA (C) were analyzed for IL-17A and IL-17R mRNA expression by qRT-PCR.\nFIGS. 60A-60B show inhibition of PTS-induced p53^AC, p53^S15 and p53, PAI-1, apoptosis and senescence by CSP7 in WT mice. Four weeks after initiation of PTS exposure as in FIG. 56, the WT mice were IP injected with vehicle or CSP7 or CP once a week for the next 4 weeks. Exposure to PTS was continued for another 12 weeks. (A) Lung sections were subjected IHC analysis for p53 and PAI-1. (B) A2ECs isolated from the lungs of these mice were immunoblotted for above mentioned proteins.\nWild-type (WT) and p53- and PAI-1-deficient mice of C57BL/6 background were bred in the inventor's facilities or were purchased from Jackson Laboratories. These mice were exposed to passive TSE from 40 research cigarettes over a 2 hour period 5 days/week for 20 weeks (^˜90 mg/m3 total solid particulates) by using a mechanical smoking chamber (Teague Enterprises, Davis, CA). Control mice were exposed to ambient air. Four weeks after initiation of passive TSE exposure, the mice were administered an intraperitoneal injection of CSP7 or scrambled control peptide (CP) (18.75 mg/kg body wt) once a week for 4 weeks (Marudamuthu et al. Am J Pathol 185: 55-68, 2015); Tiwari et al., supra). Mice were killed, and their lungs were used for further analyses (Bhandary et al., supra)."}, "human COPD lung tissues": {"tested_on": "human COPD lung tissues", "assay": "Human COPD lung tissues treated ex vivo for 72 h", "type": "cell-based", "settings": "for active caspase-3 in AT2 cells isolated from treated tissue: COPD tissue ex vivo", "description": "Lung tissues from control subjects and patients with COPD were treated with or without CSP7 for 72 h ex vivo or in vitro. Lung homogenates were analyzed for immunoblot and Real time PCR.\nTreatment of human lung tissues with CSP7 ex vivo. For ex vivo studies, de-identified human COPD lung tissues and histologically “normal” lung (nL) tissues were obtained from transplant recipients and from the Gift of Life Donor Program (www.donors1.org) from Temple University, Philadelphia, PA, USA.\nEx vivo studies using human lung tissues without patient identity was approved by the Institutional (UTHSCT) Review Board (IRB) through exempt protocol #12-003. nL and COPD tissues (n=4-5) were treated with or without CSP7 for 72 h ex vivo as described previously (Marudamuthu et al, 2019). Total protein and RNA extracted from the lung tissues were analyzed by Western blotting and qPCR for MUC5AC protein and mRNA, respectively. In separate experiments, AT2 cells isolated from nL and COPD lungs were treated with CSP7 or CP and immunoblotted for changes in senescence or apoptosis, p53, PAI-1 and SP-C expression. Similarly, nL and COPD tissues were treated with or without CSP7 or CP for 72 h ex vivo and AT2 cells isolated from these tissues were analyzed for senescence or apoptosis, p53, PAI-1 and SP-C."}}, "note": "“Also recorded” adds a separate entry of the source."}
{"substance": "DGIWKASFTTFTVTKYWFYR (listed as Homo sapiens) [CSP, 20 residue caveolin-1 scaffolding domain peptide]", "values": [{"measurement": "p53, PAI-1 expression and apoptosis in A2Cs/A2ECs", "setting": "WT mice exposed to PTS", "value": "mitigates A2EC apoptosis"}, {"measurement": "pulmonary influx of CD4- and CD8-positive T cells, macrophages and neutrophils", "setting": "WT mice exposed to PTS", "value": "inhibits pulmonary influx of CD4- and CD8-positive T cells, macrophages and neutrophils"}, {"measurement": "lung inflammation, pulmonary PMN accumulation (MPO)", "setting": "WT mice exposed to PTS; WT mice, 20 weeks PTS", "value": "significantly suppresses lung inflammation"}, {"measurement": "lung volume (micro-CT)", "setting": "WT mice exposed to PTS; WT mice, 20 weeks PTS", "value": "significantly reduced; also recorded: reduced lung volumes"}, {"measurement": "Cav1 binding with PP2Ac in A2ECs", "setting": "WT mice exposed to PTS; WT mice, PTS", "value": "inhibited the PTS-induced binding of Cav1 with PP2Ac"}, {"measurement": "Cav1 expression in A2ECs", "setting": "WT mice exposed to PTS; WT mice, PTS", "value": "without affecting Cav1 expression; also recorded: without inhibiting PTS-induced Cav1"}, {"measurement": "PTS-induced IL-17A (and IL-17R) in the lungs", "setting": "WT mice exposed to PTS; WT mice, PTS", "value": "inhibits PTS-induced accumulation of IL-17A in the lungs; also recorded: significantly inhibited PTS-induced IL-17A and IL-17R levels"}, {"measurement": "acetylated p53, serine-15 phosphorylated p53, total p53 and Sirt1 in A2ECs", "setting": "WT mice exposed to PTS; WT mice, PTS", "value": "blocked ^p15Sp53; also recorded: inhibits acetylation; also recorded: restoration of Sirt1; also recorded: reduced p53^AC, p53^S15 and total p53 levels, and restored baseline Sirt1 expression"}, {"measurement": "miR-34a expression in A2ECs", "setting": "WT mice exposed to PTS; WT mice, PTS", "value": "suppression of miR-34a expression; also recorded: significantly inhibited"}, {"measurement": "MUC5AC, HDAC6, SPDEF, Ac-Tubulin, FOXA2 and other MCM markers (Western blot)", "setting": "human COPD lung tissues; COPD tissue, 10 μM, 72 h", "value": "reverse"}]}
{"substance": "WGIDKAFFTTSTVTYKWFRY [CP, scrambled control peptide with the same amino acid composition as CSP, reference compound]", "values": [{"measurement": "acetylated p53, serine-15 phosphorylated p53, total p53 and Sirt1 in A2ECs", "setting": "WT mice exposed to PTS; WT mice, PTS", "value": "still showed elevated p53^AC, p53^S15, total p53 and PAI-1"}, {"measurement": "active caspase-3 in AT2 cells isolated from treated tissue", "setting": "human COPD lung tissues", "value": "otherwise increased"}, {"measurement": "MUC5AC, HDAC6, FOXA3, CAV1 and FOXA2 mRNA", "setting": "human COPD lung tissues; COPD tissue, 10 μM, 72 h", "value": "failed to respond"}]}
{"substance": "FTTFTVT (listed as Homo sapiens) [CSP7, heptapeptide fragment of the caveolin-1 scaffolding domain peptide CSP]", "values": [{"measurement": "p53, PAI-1 expression and apoptosis in A2Cs/A2ECs", "setting": "WT mice exposed to PTS", "value": "inhibited PTS or IL-17A exposure induced p53"}, {"measurement": "pulmonary influx of CD4- and CD8-positive T cells, macrophages and neutrophils", "setting": "WT mice exposed to PTS", "value": "inhibits pulmonary influx of CD4- and CD8-positive T cells, macrophages and neutrophils; also recorded: reversed"}, {"measurement": "PAI-1, p53^AC, p53^S15, cleaved Caspase-3 and beta-galactosidase in lung sections and A2ECs", "setting": "WT mice exposed to PTS; WT mice, 20 weeks PTS", "value": "markedly reduced"}, {"measurement": "lung volume (micro-CT)", "setting": "WT mice exposed to PTS; WT mice, 20 weeks PTS", "value": "significantly reduced; also recorded: reduced lung volumes"}, {"measurement": "Cav1 expression in A2ECs", "setting": "WT mice exposed to PTS; WT mice, PTS", "value": "without inhibiting PTS-induced Cav1"}, {"measurement": "PTS-induced IL-17A (and IL-17R) in the lungs", "setting": "WT mice exposed to PTS; WT mice, PTS", "value": "inhibits PTS-induced accumulation of IL-17A in the lungs"}, {"measurement": "acetylated p53, serine-15 phosphorylated p53, total p53 and Sirt1 in A2ECs", "setting": "WT mice exposed to PTS; WT mice, PTS", "value": "reduced p53^AC, p53^S15 and total p53 levels, and restored baseline Sirt1 expression"}, {"measurement": "miR-34a expression in A2ECs", "setting": "WT mice exposed to PTS; WT mice, PTS", "value": "reduced miR-34a"}, {"measurement": "p53 and PAI-1 in BAL fluids and lung homogenates", "setting": "WT mice exposed to PTS; injected 4 weeks after initiation of TSE, 20 weeks", "value": "significantly suppressed the expression of p53 and PAI-1"}, {"measurement": "PP2A and CIP2A mRNA", "setting": "human COPD lung tissues; COPD tissue", "value": "significantly reversed"}, {"measurement": "active caspase-3 in AT2 cells isolated from treated tissue", "setting": "human COPD lung tissues", "value": "reduced active caspase-3"}, {"measurement": "MUC5AC, HDAC6, FOXA3, CAV1 and FOXA2 mRNA", "setting": "human COPD lung tissues; COPD tissue, 10 μM, 72 h", "value": "parallel inhibition of MUC5AC, HDAC6, FOXA3 and CAV1 mRNA with an increase in FOXA2 mRNA"}, {"measurement": "MUC5AC, HDAC6, SPDEF, Ac-Tubulin, FOXA2 and other MCM markers (Western blot)", "setting": "human COPD lung tissues; COPD tissue, 10 μM, 72 h", "value": "reverse; also recorded: reduced MUC5AC and other MCM markers"}, {"measurement": "baseline CAV1, p53 and PAI-1", "setting": "human COPD lung tissues; COPD tissue, 10 μM, 72 h", "value": "suppression of baseline CAV1, p53, and PAI-1"}, {"measurement": "p53 and SP-C in AT2 cells isolated from treated tissue", "setting": "human COPD lung tissues; COPD tissue, 72 h ex vivo", "value": "reduction in p53 while restoring baseline SP-C expression"}, {"measurement": "effect in nL tissues", "setting": "human COPD lung tissues; normal lung tissue ex vivo", "value": "minimal effect"}]}
